The source of these data is patent EP1149106B1, “4,5-AZOLO-OXINDOLES” (F. HOFFMANN-LA ROCHE AG, priority 1998, dated 2000).

The target of one assay is T1, Cyclin E/CDK2 (Homo sapiens, UniProt P24941).
T1 construct: made in house; host or cells: insect cells
The assay can be described thus: CDK2 FlashPlate Assay (Rb phosphorylation, 33P-ATP). Format: biochemical. To be noted: recombinant human Cyclin E/CDK2, Rb substrate, 25 minutes at room temperature. How it is done: To determine inhibition of CDK2 activity, purified recombinant retinoblastoma (Rb) protein was coated on 96 well FlashPlates (New England Nuclear, Boston, MA). Rb is a natural substrate for phosphorylation by CDK2 (Herwig and Strauss Eurr. J. Biochem., Vol. 246 (1997) pp. 581-601 and references therein). Recombinant active human Cyclin E/CDK2 complexes were partially purified from extracts of insect cells. The active Cyclin E/CDK2 was added to the Rb-coated FlashPlates along with ^33P-ATP and dilutions of test compounds. Plates were incubated for 25 minutes at room temperature with shaking, then washed and counted in the Topcount scintillation counter (Packard Instrument Co., Downers Grove, IL). Dilutions of test compounds were tested in duplicate in each assay. The percent inhibition of Rb phosphorylation, which is a measure of the inhibition of CDK2 activity, was determined according to the following formula: [formula] where "test compound" refers to the average counts per minute of the test duplicates, "nonspecific" refers to the average counts per minute when no Cyclin E/CDK2 was added, and "total" refers to the average counts per minute when no compound was added.

Assay [1] deals with colon carcinoma line SW480. The assay can be described thus: Cell-based antiproliferative assay (MTT), SW480. To be noted: Homo sapiens, SW480, 96 h, 1000 cells per well, 4 days post addition of test compound.
The test system of assay [2] is estrogen receptor negative epithelial breast carcinoma line (MDA-MB-435). In words: Cell-based antiproliferative assay (MTT), MDA-MB-435. To be noted: Homo sapiens, MDA-MB-435, 120 h, 2000 cells per well, 5 days post addition of test compound, read-out: MDA-MB435 IC50. How it is done:
The estrogen receptor negative epithelial breast carcinoma line (MDA-MB-435) was purchased from American Type Cell Culture Collection (ATCC; Rockville, MD) and was grown in the medium recommended by ATCC. For analysis of the effect of the test compounds on growth of these cells, the cells were plated at 2000 cells per well in a 96-well tissue culture plate, and were incubated overnight at 37°C with 5% CO2. The next day, the test compounds were dissolved in 100% dimethyl sulfoxide (DMSO) to yield a 10 mM stock solution. Each compound was diluted with sterile medium to 1 mM in a sufficient quantity to yield a final concentration of 120 µM. The compounds were then serially diluted in medium with 1.2% DMSO. […] The plates were returned to the incubator, and 5 days post addition of test compound, were analyzed as described below.
3-(4,5-Dimethylthiazole-2-yl)-2,5-diphenyl-2H-tetrazolium bromide (thiazolyl blue; MTT) was added to each well to yield a final concentration of 1 mg/ml. […] Absorbencies were read in a microtiter plate reader (Molecular Dynamics) at a wavelength of 570 nm with a 650 nm reference. Percent inhibition was calculated by subtracting the absorbance of the blank (no cell) wells from all wells, then subtracting the division of the average absorbance of each test duplicate by the average of the controls from 1.00. […]

Regarding `COc1cc[nH]c1/C=C1\C(=O)Nc2ccc3[nH]c(C)nc3c21` [P, (Z)-8-[(3-Methoxy-1H-pyrrol-2-yl)methylene]-2-methyl-3,6,7,8-tetrahydro-pyrrolo-[3,2-e]benzimidazol-7-one], the values for the IC50 (at Cyclin E/CDK2; in assay [1]; in assay [2]) were < 3.5 µM, < 1 µM and < 3.5 µM, respectively.
